Counter-ions that a name gives are not always drawn. Like-named read-outs stand apart in the source and are kept apart here. d = 2'-deoxy (DNA); r = 2'-OH (RNA)
Columns and labels:
[1] = test system: Pgp, BCRP, MRP2; conditions: cited from earlier work
[2] = test system: P-gp, BCRP, and MRP2; test: mock screening of model drugs: ex vivo perfusion through porcine small intestine tissue after siRNA knockdown; conditions: transporter(s) found by siRNA knockdown perfusion screen
Excerpt: (§5) Pig tissue was freshly sourced from local slaughter houses (i.e., Leman & Sons, Hilltown Pork, and Blood Farm). Small intestinal tissue was isolated from intact gastrointestinal tract immediately after euthanasia, and dissected longitudinally. A series of washes with PBS supplemented with 5% Antibiotic-Antimycotic solution (Thermo Fisher Scientific) was applied to the tissue until clean under sterile conditions. Then, the tissue was mounted on a device filled with PBS (5% Antibiotic-Antimycotic) solution and cultured at 37° C. incubation with 5% CO2 supplement.
(§6) siRNA duplex solution was diluted into PBS solution to a final concentration of 1 μM. […] Tissue was cultured for 24 hours before the perfusion assay.
(§7) The device consists of a bottom reservoir plate and an upper load plate. Both plates were made by laser cutting (Universal Laser Systems VLS6.60) a standard 48-well plate outline and well pattern (Corning 48 well plate, transparent) as well as magnet holes onto an acrylic sheet (McMaster-Carr 1/4″ thickness). Neodymium magnets (K&J Magnetics Cylinder, 3/16″× 3/16″, N52, NI) were press fitted into the magnet holes of both plates. Seal film (Thermo) was applied to seal the bottoms of the wells of the reservoir plate, and PBS solution was loaded into each well. Then, tissue was placed on top of the reservoir plate and the upper load plate was laid on top of the tissue. The magnets were oriented to align and attract the two plates together, ensuring a strong seal between the wells.
(§8) For ex vivo perfusion study, the detection of each drug is based on either fluorescent or absorbance measurements according to the literature. A 1 mg/mL drug stock was prepared for each drug in PBS (pH 7.4). For water-insoluble drugs, a final concentration of DMSO in PBS was used to solubilize drugs.

[3] = test system: P-gp, BCRP, or MRP2; test: in vivo pharmacokinetic study with oral transport inhibitor pre-treatment; conditions: oral gavage, serum, 60 minutes; verapamil for P-gp, imatinib for BCRP, or probenecid for MRP2; p<0.05
[4] = test system: P-gp, BCRP, and MRP2
Excerpt: as §5, §6, §7, §8

[5] = target: T1, P-gp, BCRP, MRP2, PEPT1, and MCT1 (Sus scrofa, UniProt Q8MIB3); test: ex vivo perfusion of known substrates and non-substrates after knockdown of a single transporter; assay type: in vitro ADME, porcine; conditions: other drugs p<0.01
T1 construct: Small intestinal tissue was isolated from intact gastrointestinal tract immediately after euthanasia; from tissue; host or cells: porcine small intestine explant, single transporter knocked down by siRNA
T1 sequence (Q8MIB3 1-656): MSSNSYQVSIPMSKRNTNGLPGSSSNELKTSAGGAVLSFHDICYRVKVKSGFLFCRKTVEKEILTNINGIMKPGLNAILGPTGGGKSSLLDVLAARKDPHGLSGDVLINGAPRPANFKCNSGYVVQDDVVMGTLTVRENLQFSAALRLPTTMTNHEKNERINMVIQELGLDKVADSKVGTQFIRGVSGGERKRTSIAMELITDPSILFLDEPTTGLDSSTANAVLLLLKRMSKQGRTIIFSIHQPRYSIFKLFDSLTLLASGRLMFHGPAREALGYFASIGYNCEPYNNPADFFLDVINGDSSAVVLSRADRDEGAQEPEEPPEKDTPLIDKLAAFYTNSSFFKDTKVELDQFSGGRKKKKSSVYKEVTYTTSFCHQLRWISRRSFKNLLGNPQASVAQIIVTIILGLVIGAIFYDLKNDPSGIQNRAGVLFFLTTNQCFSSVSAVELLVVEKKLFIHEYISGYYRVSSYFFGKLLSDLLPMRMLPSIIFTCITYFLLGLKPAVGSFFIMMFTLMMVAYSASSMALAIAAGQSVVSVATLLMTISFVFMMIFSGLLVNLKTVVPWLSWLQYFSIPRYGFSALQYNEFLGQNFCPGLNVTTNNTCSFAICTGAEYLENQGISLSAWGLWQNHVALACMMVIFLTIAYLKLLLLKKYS
Procedure: If a molecule is transported by a specific transporter, its diffusion across the tissue should be impacted by selectively down regulating that transporter. To validate that the platform accurately captures this behavior, a total of 23 known transporter-drug relationships was tested.

[6] = target: cytochrome P450 3A4 (Homo sapiens, UniProt P08684); conditions: cited from earlier work
[7] = target: T2, BCRP (Sus scrofa, UniProt Q8MIB3); test: ex vivo perfusion versus gradually reduced BCRP expression; assay type: in vitro ADME, porcine
T2 construct: Small intestinal tissue was isolated from intact gastrointestinal tract immediately after euthanasia; from tissue; host or cells: porcine small intestine explant, BCRP level lowered by graded siRNA doses
T2 sequence (Q8MIB3 1-656): T1 sequence (Q8MIB3 1-656)
Excerpt: (§1) Next perfusion of drugs that are known to be substrates for multiple transporters was studied. […] To be able to delineate such effects, it was aimed to down regulate multiple transporters simultaneously. Two siRNAs targeting P-gp and BCRP were co-delivered with varying concentrations of each siRNA and noted that expression levels could be fine-tuned in a dose-dependent, linear fashion (Pearson r=0.79 and 0.96, FIG. 5C). Next, how the simultaneous and gradual down regulation of transporter expression impacts drug perfusion was studied. Perfusion of BCRP-specific substrates increased linearly with reduced BCRP-expression (dauricine R=0.7, hymecromone sulfate R=0.81) but were not affected by altering P-gp expression (p>0.28 one-tailed Z test at maximum siPgp concentration; FIG. 5C).

[8] = target: T3, P-gp (Sus scrofa, UniProt K7GMM7); test: ex vivo perfusion versus altered P-gp expression; assay type: in vitro ADME, porcine
T3 construct: Small intestinal tissue was isolated from intact gastrointestinal tract immediately after euthanasia; from tissue; host or cells: porcine small intestine explant, P-gp level lowered by graded siRNA doses
Excerpt: as §1

[9] = test system: BCRP and MRP2; test: ex vivo perfusion with doxycycline co-treatment
Procedure: Four candidate drugs that are known substrates of BCRP and MRP2 were manually selected to study whether they could potentially interact with doxycycline.
As a first-line test (FIG. 10), ex vivo perfusion experiments were conducted to test for changes in absorption when co-administering the candidates with doxycycline.

[10] = test system: BCRP; test: siRNA dose versus transporter expression (western-blot); assay type: cell-based, porcine; conditions: co-delivery with varying concentrations, 0 to 25 μM
Procedure: (§2) FIGS. 5A-5B show the level of reduction in P-gp and BCRP drug transporter expression depends on the dose of siRNA (0 to 25 μM) administered to the intestinal tissue explant.
(§3) Tissue was dissected and snap frozen in liquid nitrogen. Every 1 mg of tissue sample was homogenized in 100 μL of RIPA buffer supplied with protease inhibitor (Roche) by Berkin 24-cycle homogenizer. After centrifugation, the protein concentration from the supernatant was determined by BCA assay (Pierce) according to manufactory protocol. A total of 100 μg of protein was loaded on each lane for western-blotting. Blots were imaged with Bio-rad universal Hood Ii Molecular Imager (1312M) with Chemiluminescence method. Contrast setting was set for auto-contrast for all images.
(§4) Next perfusion of drugs that are known to be substrates for multiple transporters was studied. […] To be able to delineate such effects, it was aimed to down regulate multiple transporters simultaneously. Two siRNAs targeting P-gp and BCRP were co-delivered with varying concentrations of each siRNA and noted that expression levels could be fine-tuned in a dose-dependent, linear fashion (Pearson r=0.79 and 0.96, FIG. 5C). Next, how the simultaneous and gradual down regulation of transporter expression impacts drug perfusion was studied. […]

[11] = test system: P-gp; test: as above; assay type: cell-based, porcine; conditions: co-delivery with varying concentrations, 0 to 25 μM
Procedure: as §2, §3, §4

[12] = transporter(s) reported in previous literature for the drug

Sequence of cytochrome P450 3A4 (P08684 whole entry, the tested form may be a part): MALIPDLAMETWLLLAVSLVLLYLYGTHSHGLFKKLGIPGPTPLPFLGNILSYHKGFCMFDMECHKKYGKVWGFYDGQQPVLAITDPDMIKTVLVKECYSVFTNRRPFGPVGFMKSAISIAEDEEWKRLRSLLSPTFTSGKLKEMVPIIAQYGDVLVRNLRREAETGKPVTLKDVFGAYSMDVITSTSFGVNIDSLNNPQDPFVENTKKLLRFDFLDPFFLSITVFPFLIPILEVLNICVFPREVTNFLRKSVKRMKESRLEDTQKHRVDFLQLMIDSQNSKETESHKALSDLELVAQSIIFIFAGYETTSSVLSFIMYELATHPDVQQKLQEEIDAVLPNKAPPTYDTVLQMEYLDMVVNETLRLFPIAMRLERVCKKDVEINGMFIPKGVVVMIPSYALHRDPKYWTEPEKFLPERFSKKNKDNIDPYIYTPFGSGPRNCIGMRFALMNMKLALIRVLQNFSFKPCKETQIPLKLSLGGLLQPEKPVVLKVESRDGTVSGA
T3 sequence (K7GMM7 1-1248): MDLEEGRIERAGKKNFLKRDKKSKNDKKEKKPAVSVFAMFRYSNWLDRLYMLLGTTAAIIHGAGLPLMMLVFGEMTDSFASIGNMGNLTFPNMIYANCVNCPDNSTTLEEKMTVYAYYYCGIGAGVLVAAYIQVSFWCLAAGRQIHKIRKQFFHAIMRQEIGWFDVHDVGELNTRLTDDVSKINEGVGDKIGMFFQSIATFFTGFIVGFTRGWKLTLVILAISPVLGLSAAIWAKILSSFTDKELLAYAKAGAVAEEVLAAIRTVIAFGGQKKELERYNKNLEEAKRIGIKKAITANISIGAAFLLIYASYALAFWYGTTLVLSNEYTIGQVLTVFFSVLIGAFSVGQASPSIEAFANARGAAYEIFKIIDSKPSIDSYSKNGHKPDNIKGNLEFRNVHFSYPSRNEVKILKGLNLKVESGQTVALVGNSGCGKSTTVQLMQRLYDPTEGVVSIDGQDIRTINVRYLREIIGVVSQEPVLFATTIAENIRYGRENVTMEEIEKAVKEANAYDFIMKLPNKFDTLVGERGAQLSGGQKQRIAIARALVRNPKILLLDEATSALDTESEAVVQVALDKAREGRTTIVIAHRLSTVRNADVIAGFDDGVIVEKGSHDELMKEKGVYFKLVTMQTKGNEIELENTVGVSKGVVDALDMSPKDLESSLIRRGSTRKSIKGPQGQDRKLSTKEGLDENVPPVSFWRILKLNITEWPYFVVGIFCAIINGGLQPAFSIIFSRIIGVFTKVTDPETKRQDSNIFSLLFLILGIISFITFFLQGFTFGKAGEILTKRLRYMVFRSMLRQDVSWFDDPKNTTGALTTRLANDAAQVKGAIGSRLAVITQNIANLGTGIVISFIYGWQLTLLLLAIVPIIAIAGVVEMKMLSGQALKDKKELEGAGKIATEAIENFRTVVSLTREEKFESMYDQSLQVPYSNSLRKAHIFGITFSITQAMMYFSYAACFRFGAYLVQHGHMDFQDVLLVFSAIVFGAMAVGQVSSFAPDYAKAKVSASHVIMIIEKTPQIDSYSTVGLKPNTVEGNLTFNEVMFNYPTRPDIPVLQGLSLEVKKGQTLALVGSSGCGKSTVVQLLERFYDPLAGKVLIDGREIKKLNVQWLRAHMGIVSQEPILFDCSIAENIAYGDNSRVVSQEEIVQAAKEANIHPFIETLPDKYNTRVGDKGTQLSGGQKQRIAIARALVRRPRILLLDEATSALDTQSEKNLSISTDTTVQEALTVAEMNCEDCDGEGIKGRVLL

For `CCOc1nc2cccc(C(=O)OC(C)OC(=O)OC3CCCCC3)c2n1Cc1ccc(-c2ccccc2-c2nnn[nH]2)cc1` (stereo not shown) [Candesartan cilexetil], the “Literature Target” value [1, 12] is listed as “Pgp” and the “Platform Target” value [2] is listed as “no target”.
For `NC(=O)N1c2ccccc2C=Cc2ccccc21` [Carbamazepine], the “Literature Target” value [1, 12] is listed as “Pgp”, the “relative AUC (drug absorption) with versus without transport inhibitor” value [3] is listed as “did not show the expected effect” and the “Platform Target” value [2] is listed as “Pgp & BCRP”.
For `CN(C)[C@@H]1C(O)=C(C(N)=O)C(=O)[C@@]2(O)C(O)=C3C(=O)c4c(O)ccc(Cl)c4[C@@](C)(O)[C@H]3C[C@@H]12` [Chlorotetracycline], the “Literature Target” value [1] is given as “no target” and the “Platform Target” value [4] is given as “no target”.
In the case of `O=c1ccc2ccccc2o1` [Coumarin], the “Literature Target” value [1, 12] is given as “Pgp” and the “Platform Target” value [2] is given as “Pgp”.
In the case of `C[C@H]1c2cccc(O)c2C(=O)C2=C(O)[C@]3(O)C(=O)C(C(N)=O)=C(O)[C@@H](N(C)C)[C@@H]3[C@@H](O)[C@@H]21` [Doxycycline], the “known substrate of transporters” value [1] is given as “P-gp and OAT1”, the “Literature Target” value [1, 12] is given as “no target” and the “relative AUC (drug absorption) with versus without transport inhibitor” value [3] is given as “novel BCRP and MRP2 substrate”. For the same molecule, the “Platform Target” value [2] was “BCRP & MRP2”.
For `N[C@@H](Cc1ccccc1)C(=O)O` [L-phenylalanine], the “Literature Target” value [1, 12] is given as “no target” and the “Platform Target” value [2] is given as “no target”.
In the case of `CN(C)C(=O)C(CCN1CCC(O)(c2ccc(Cl)cc2)CC1)(c1ccccc1)c1ccccc1` [Loperamide], the “Literature Target” value [1] is given as “no target” and the “Platform Target” value [4] is given as “no target”.
For `CC(C)(C)NCC(O)COc1cccc2c1CC(O)C(O)C2` (stereo not shown) [Nadolol], the “Literature Target” value [1, 12] is given as “no target” and the “Platform Target” value [2] is given as “BCRP”.
For `NCCC(O)(P(=O)(O)O)P(=O)(O)O` [Pamidronate disodium salt hydrate], the “Literature Target” value [1, 12] is given as “no target” and the “Platform Target” value [2] is given as “Pgp”.
For `CN1C(C(=O)Nc2ccccn2)=C(O)c2ccccc2S1(=O)=O` [Piroxicam], the “Literature Target” value [1, 12] is listed as “no target” and the “Platform Target” value [2] is listed as “no target”.
For `CNC(=C[N+](=O)[O-])NCCSCc1ccc(CN(C)C)o1` [Ranitidine], the “Literature Target” value [1, 12] is listed as “Pgp & BCRP” and the “Platform Target” value [2] is listed as “Pgp & BCRP & MRP2”.
In the case of `CC(C)c1nc(N(C)S(C)(=O)=O)nc(-c2ccc(F)cc2)c1/C=C/[C@@H](O)C[C@@H](O)CC(=O)O` [Rosuvastatin], the “p, two-tailed T test, of perfusion increase after knockdown” value [5] is reported as 2%.
For `CC(C)(C)NCC(O)c1cc(O)cc(O)c1` (stereo not shown) [Terbutaline], the “Literature Target” value [1, 12] is listed as “no target” and the “Platform Target” value [2] is listed as “no target”.
In the case of `CC(=O)CC(c1ccccc1)c1c(O)c2ccccc2oc1=O` (stereo not shown) [Warfarin], the “known substrate of transporters” value [1] is given as “BCRP and MRP2”, the “Literature Target” value [1, 12] is given as “Pgp & BCRP” and the “Platform Target” value [2] is given as “Pgp & BCRP”. For the same molecule, the “metabolism through cytochrome P450 3A4” value [6] was “metabolized through cytochrome P450 3A4”.
In the case of `COc1cc2c(cc1OC)[C@@H](Cc1ccc(Oc3cc(C[C@@H]4c5cc(OC)c(OC)cc5CCN4C)ccc3O)cc1)N(C)CC2` [dauricine], the “R, perfusion increase versus reduced BCRP-expression” value ([7]; pig) is reported as 0.7 and the “perfusion on altering P-gp expression” value [8] is reported as “not affected”.
In the case of `C[C@H]1O[C@@H](O[C@H]2[C@@H](O)C[C@H](O[C@H]3[C@@H](O)C[C@H](O[C@H]4CC[C@@]5(C)[C@H](CC[C@@H]6[C@@H]5C[C@@H](O)[C@]5(C)[C@@H](C7=CC(=O)OC7)CC[C@]65O)C4)O[C@@H]3C)O[C@@H]2C)C[C@H](O)[C@@H]1O` [digoxin], the “known substrate of transporters” value [1] is given as “BCRP and MRP2”, the “perfusion / absorption upon co-treatment with doxycycline” value [9] is given as “increased absorption” and the “metabolism through cytochrome P450 3A4” value [6] is given as “not cytochrome substrates”.
In the case of `CC[C@@H](C(N)=O)N1CCCC1=O` [levetiracetam], the “known substrate of transporters” value [1] is given as “BCRP and MRP2”, the “perfusion / absorption upon co-treatment with doxycycline” value [9] is given as “increased absorption” and the “metabolism through cytochrome P450 3A4” value [6] is given as “not cytochrome substrates”.
For `C=CC[C@@H]1/C=C(\C)C[C@H](C)C[C@H](OC)[C@H]2O[C@@](O)(C(=O)C(=O)N3CCCC[C@H]3C(=O)O[C@H](/C(C)=C/[C@@H]3CC[C@@H](O)[C@H](OC)C3)[C@H](C)[C@@H](O)CC1=O)[C@H](C)C[C@@H]2OC` [tacrolimus], the “known substrate of transporters” value [1] is listed as “BCRP and MRP2”, the “perfusion / absorption upon co-treatment with doxycycline” value ([9]; ex vivo, LC-MS/MS, p<0.05) is listed as “increased absorption” and the “metabolism through cytochrome P450 3A4” value [6] is listed as “metabolized through cytochrome P450 3A4”.
In the case of Ergotamine D-tartrate, the “Literature Target” value [1, 12] is listed as “Pgp” and the “Platform Target” value [2] is listed as “Pgp & BCRP & MRP2”.
For hymecromone sulfate, the “R, perfusion increase versus reduced BCRP-expression” value ([7]; BCRP-specific substrates, linear relation, FIG. 5C) was 0.81 and the “perfusion on altering P-gp expression” value ([8]; BCRP-specific substrates, p>0.28 one-tailed Z test at maximum siPgp concentration) was “not affected”.
With “siRNA targeting BCRP: siRNA duplex, sense SEQ ID NO: 95, antisense SEQ ID NO: 96 (sense ACUUCUUCCUGGACGUCAUUATT; antisense UAAUGACGUCCAGGAAGAAGUTT; chemistry not given here)” the “Pearson r, expression level versus siRNA dose” value [10] was 0.96.
In the case of “siRNA targeting P-gp: siRNA duplex, sense SEQ ID NO: 91, antisense SEQ ID NO: 92 (sense AUGACAGUGUACGCCUAUUAUTT; antisense AUAAUAGGCGUACACUGUCAUTT; sugars from the 5' end r21 d2, backbone not given here)”, the “Pearson r, expression level versus siRNA dose” value [11] is reported as 0.79.
